Results as given in the kinase profiling compilation of Christmann-Franck et al. (2016).
“And” between values parts separate entries of the source, which are not always exact repeats. Equal values may be shown once.

Assays:
Assay in all cases: KINOMEscan competition binding
Details in all cases: compound 10.0 µM
[1] = target: AAK1 (human) (UniProt Q2M2I8)
[2] = target: BTK (human) (UniProt Q06187)
[3] = target: CASK (human) (UniProt O14936)
[4] = target: CSNK1G1 (human) (UniProt Q9HCP0)
[5] = target: DSTYK (human) (UniProt Q6XUX3)
[6] = target: DYRK1A (human) (UniProt Q13627)
[7] = target: EIF2AK2 (human) (UniProt P19525)
[8] = target: EPHB3 (human) (UniProt P54753)
[9] = target: FLT3 (human) (UniProt P36888)
[10] = target: FYN (human) (UniProt P06241)
[11] = target: INSRR (human) (UniProt P14616)
[12] = target: JAK1 JH1 catalytic (human) (UniProt P23458)
[13] = target: MAP3K11 (human) (UniProt Q16584)
[14] = target: MAP3K7 (human) (UniProt O43318)
[15] = target: MAPK3 (human) (UniProt P27361)
[16] = target: MAPK9 (human) (UniProt P45984)
[17] = target: MET (human) (UniProt P08581)
[18] = target: MST1R (human) (UniProt Q04912)
[19] = target: MYLK2 (human) (UniProt Q9H1R3)
[20] = target: NEK6 (human) (UniProt Q9HC98)
[21] = target: PAK2 (human) (UniProt Q13177)
[22] = target: PAK7 (human) (UniProt Q9P286)
[23] = target: PIM1 (human) (UniProt P11309)
[24] = target: PIM2 (human) (UniProt Q9P1W9)
[25] = target: PKN3 (M.tuberculosis) (UniProt Q6P5Z2)
[26] = target: PLK4 (human) (UniProt O00444)
[27] = target: RIPK1 (human) (UniProt Q13546)
[28] = target: RIPK2 (human) (UniProt O43353)
[29] = target: ROCK1 (human) (UniProt Q13464)
[30] = target: ROCK2 (human) (UniProt O75116)
[31] = target: STK32B (human) (UniProt Q9NY57)
[32] = target: STK35 (human) (UniProt Q8TDR2)
[33] = target: TAOK1 (human) (UniProt Q7L7X3)
[34] = target: TRPM6 (human) (UniProt Q9BX84)
[35] = target: TSSK1B (human) (UniProt Q9BXA7)
[36] = target: WEE1 (human) (UniProt P30291)
[37] = target: CDK18 (human) (UniProt Q07002)
[38] = target: GSK3B (human) (UniProt P49841)
[39] = test system: KIT (human), P10721 [L576P]
[40] = target: NEK3 (human) (UniProt P51956)

MAP3K11 (human), sequence (Q16584 whole entry, looked up): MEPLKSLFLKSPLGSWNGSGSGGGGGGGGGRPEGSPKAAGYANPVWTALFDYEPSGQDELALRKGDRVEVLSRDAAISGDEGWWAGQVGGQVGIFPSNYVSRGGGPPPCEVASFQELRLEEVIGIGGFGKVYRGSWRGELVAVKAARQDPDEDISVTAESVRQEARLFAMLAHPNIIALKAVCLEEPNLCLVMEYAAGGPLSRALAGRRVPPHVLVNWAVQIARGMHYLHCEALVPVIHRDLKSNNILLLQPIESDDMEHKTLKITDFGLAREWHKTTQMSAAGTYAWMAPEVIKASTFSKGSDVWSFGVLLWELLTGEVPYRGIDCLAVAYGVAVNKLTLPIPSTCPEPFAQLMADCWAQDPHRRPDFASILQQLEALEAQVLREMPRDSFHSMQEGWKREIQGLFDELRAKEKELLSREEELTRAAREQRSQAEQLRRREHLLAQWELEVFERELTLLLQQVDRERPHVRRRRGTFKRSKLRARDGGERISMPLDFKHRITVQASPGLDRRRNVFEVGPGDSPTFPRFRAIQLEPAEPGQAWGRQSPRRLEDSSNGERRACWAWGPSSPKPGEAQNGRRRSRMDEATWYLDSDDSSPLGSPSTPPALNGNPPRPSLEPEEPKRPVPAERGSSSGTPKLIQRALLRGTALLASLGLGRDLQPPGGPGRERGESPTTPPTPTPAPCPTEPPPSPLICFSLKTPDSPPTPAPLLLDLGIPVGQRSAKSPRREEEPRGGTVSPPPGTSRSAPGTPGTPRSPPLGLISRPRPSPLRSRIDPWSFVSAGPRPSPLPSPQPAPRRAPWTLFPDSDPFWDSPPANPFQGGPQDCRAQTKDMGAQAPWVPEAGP
TSSK1B (human), sequence (Q9BXA7 whole entry, looked up): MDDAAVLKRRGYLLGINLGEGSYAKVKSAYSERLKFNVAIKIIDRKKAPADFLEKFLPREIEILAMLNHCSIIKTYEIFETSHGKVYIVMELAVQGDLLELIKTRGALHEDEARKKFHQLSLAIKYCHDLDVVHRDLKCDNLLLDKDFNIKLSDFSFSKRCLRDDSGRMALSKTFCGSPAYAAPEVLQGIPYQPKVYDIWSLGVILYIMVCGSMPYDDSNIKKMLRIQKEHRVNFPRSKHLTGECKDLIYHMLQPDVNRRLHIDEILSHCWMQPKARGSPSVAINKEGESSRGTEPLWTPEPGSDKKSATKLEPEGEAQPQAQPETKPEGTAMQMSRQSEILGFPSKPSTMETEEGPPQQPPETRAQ
STK32B (human), sequence (Q9NY57 whole entry, looked up): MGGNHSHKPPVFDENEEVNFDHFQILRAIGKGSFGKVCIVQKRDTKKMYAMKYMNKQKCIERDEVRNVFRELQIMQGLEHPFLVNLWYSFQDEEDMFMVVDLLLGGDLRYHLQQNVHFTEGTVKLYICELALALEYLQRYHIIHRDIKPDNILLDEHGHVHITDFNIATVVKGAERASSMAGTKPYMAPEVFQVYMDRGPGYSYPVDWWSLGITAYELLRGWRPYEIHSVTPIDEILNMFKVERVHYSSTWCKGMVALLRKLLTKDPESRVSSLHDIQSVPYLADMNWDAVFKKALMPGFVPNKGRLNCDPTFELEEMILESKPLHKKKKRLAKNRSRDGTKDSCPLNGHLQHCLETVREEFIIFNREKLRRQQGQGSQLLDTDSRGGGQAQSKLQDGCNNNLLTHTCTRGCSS
PAK2 (human), sequence (Q13177 whole entry, looked up): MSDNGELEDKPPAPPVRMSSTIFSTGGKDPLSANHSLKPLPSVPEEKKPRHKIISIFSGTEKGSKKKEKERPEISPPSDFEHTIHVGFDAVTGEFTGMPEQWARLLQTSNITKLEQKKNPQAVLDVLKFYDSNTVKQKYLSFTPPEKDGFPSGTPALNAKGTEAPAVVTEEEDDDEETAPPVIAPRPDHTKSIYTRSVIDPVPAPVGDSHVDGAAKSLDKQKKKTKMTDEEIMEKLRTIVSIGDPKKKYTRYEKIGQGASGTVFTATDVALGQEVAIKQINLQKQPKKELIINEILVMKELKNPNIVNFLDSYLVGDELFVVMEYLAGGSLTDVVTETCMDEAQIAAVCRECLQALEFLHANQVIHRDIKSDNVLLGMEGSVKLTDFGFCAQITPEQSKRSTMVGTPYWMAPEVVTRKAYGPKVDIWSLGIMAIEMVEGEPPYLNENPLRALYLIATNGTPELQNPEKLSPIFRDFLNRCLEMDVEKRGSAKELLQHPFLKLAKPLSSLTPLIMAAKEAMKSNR
RIPK2 (human), sequence (O43353 whole entry, looked up): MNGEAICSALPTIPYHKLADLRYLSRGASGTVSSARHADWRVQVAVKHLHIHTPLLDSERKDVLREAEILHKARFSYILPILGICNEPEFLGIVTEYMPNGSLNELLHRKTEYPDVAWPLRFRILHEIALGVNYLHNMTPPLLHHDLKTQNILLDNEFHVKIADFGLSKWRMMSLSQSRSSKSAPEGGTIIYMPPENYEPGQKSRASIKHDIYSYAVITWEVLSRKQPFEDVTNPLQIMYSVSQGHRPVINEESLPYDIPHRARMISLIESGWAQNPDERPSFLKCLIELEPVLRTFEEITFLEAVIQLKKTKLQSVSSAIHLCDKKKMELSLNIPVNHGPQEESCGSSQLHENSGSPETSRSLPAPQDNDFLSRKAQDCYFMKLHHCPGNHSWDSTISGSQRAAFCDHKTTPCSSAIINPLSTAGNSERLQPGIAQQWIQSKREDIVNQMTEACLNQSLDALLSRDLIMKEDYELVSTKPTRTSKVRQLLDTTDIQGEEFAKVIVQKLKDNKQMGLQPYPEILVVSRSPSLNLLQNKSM
PIM2 (human), sequence (Q9P1W9 whole entry, looked up): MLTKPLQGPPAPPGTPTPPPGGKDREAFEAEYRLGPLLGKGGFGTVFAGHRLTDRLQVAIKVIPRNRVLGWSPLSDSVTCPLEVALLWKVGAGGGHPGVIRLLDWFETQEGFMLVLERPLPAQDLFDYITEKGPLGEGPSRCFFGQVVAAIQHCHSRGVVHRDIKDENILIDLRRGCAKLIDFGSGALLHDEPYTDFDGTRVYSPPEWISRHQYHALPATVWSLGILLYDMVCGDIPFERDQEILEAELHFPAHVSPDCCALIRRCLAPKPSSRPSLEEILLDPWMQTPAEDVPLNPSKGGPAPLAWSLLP
KIT (human), P10721 [L576P], sequence (P10721 whole entry L576P, looked up): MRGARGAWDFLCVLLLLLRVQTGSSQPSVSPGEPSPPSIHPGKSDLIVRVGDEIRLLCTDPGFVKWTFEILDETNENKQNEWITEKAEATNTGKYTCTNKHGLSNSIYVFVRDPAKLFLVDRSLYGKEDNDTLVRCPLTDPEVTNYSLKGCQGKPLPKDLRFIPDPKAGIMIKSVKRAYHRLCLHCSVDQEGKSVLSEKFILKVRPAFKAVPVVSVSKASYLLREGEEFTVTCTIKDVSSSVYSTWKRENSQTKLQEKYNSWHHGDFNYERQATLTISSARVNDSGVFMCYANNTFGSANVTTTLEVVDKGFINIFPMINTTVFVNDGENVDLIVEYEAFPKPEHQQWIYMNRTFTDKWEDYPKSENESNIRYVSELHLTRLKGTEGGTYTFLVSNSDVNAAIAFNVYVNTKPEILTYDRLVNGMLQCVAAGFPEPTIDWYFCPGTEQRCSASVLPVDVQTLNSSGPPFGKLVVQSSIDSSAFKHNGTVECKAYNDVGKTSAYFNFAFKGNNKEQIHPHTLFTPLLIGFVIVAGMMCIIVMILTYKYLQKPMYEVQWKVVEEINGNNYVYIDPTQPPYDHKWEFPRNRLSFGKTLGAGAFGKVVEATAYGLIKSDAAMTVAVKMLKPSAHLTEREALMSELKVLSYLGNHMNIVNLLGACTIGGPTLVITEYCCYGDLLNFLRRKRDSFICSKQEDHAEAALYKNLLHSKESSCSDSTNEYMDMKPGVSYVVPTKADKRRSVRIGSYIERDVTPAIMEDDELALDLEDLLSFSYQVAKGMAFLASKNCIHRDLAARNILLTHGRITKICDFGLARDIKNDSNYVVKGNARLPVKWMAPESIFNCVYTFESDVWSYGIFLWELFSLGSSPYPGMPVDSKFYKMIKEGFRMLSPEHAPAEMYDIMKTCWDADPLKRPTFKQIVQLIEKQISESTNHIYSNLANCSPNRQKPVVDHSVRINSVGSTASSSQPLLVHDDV
MAPK3 (human), sequence (P27361 whole entry, looked up): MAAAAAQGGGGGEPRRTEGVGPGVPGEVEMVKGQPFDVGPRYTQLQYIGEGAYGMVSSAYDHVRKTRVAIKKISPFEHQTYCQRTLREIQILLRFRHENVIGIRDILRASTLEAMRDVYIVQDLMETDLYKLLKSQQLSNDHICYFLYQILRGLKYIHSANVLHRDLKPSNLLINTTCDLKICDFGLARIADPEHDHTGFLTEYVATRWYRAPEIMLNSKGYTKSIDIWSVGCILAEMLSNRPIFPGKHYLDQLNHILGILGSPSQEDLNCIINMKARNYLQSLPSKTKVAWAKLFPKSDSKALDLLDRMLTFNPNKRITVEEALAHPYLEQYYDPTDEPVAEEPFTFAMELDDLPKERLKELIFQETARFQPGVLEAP
MAP3K7 (human), sequence (O43318 whole entry, looked up): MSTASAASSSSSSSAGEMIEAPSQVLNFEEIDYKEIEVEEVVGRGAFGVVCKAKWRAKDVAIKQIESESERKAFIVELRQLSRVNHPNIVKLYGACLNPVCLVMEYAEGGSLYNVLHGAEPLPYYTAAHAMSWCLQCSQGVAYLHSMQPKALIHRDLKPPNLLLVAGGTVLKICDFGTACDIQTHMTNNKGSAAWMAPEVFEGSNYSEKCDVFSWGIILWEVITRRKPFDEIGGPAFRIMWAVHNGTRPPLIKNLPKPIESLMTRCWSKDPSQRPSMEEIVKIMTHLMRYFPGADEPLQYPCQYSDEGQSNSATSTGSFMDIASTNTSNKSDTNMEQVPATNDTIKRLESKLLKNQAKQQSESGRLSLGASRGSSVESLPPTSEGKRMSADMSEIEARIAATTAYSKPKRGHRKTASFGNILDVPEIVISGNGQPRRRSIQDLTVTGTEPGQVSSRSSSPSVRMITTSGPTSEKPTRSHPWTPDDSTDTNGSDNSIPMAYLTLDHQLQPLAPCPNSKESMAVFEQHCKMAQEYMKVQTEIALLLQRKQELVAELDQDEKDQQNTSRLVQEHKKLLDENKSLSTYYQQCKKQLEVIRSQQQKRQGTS

SMILES | kinase still bound, per cent of control [1] [%] | kinase still bound, per cent of control [4] [%] | kinase still bound, per cent of control [6] [%] | kinase still bound, per cent of control [7] [%] | kinase still bound, per cent of control [8] [%] | kinase still bound, per cent of control [9] [%] | kinase still bound, per cent of control [10] [%] | kinase still bound, per cent of control [11] [%] | kinase still bound, per cent of control [12] [%] | kinase still bound, per cent of control [13] [%] | kinase still bound, per cent of control [14] [%] | kinase still bound, per cent of control [15] [%] | kinase still bound, per cent of control [16] [%] | kinase still bound, per cent of control [19] [%] | kinase still bound, per cent of control [20] [%] | kinase still bound, per cent of control [21] [%] | kinase still bound, per cent of control [22] [%] | kinase still bound, per cent of control [23] [%] | kinase still bound, per cent of control [24] [%] | kinase still bound, per cent of control [26] [%] | also measured
N#CCNC(=O)c1ccc(-c2ccnc(Nc3ccc(N4CCOCC4)cc3)n2)cc1 | 3.9 | 100 | 66 | 47 | 100 | 100 | 78 | 100 | 13 | 95 | 49 | 100 | 26 | 23 | 6.2 | 100 | 56 | 100 | 100 | 15 | kinase still bound, per cent of control [2]: 75%; kinase still bound, per cent of control [3]: 100%; kinase still bound, per cent of control [5]: 38%; kinase still bound, per cent of control [17]: 100%; kinase still bound, per cent of control [18]: 100%; kinase still bound, per cent of control [25]: 8.7%; kinase still bound, per cent of control [27]: 63%; kinase still bound, per cent of control [28]: 88%; kinase still bound, per cent of control [29]: 2.9%; kinase still bound, per cent of control [30]: 0.7%; kinase still bound, per cent of control [31]: 93%; kinase still bound, per cent of control [32]: 57%; kinase still bound, per cent of control [33]: 32%; kinase still bound, per cent of control [34]: 100%; kinase still bound, per cent of control [35]: 100%; kinase still bound, per cent of control [36]: 100%
CCN(CC)CCCCNc1ncc2c(n1)N(C)C(=O)N(c1c(Cl)c(OC)cc(OC)c1Cl)C2 | 100 | 100 | 100 | 100 | 100 | 100 | 100 | 100 | 100 | 100 | 100 | 100 | 100 | 100 | 100 | 100 | 100 | 100 | 100 | 100 | kinase still bound, per cent of control [2]: 100%; kinase still bound, per cent of control [37]: 100%; kinase still bound, per cent of control [38]: 100%; kinase still bound, per cent of control [39]: 2.3%; kinase still bound, per cent of control [17]: 100%; kinase still bound, per cent of control [18]: 100%; kinase still bound, per cent of control [27]: 100%; kinase still bound, per cent of control [28]: 100%; kinase still bound, per cent of control [29]: 100%; kinase still bound, per cent of control [30]: 100%; kinase still bound, per cent of control [31]: 100%; kinase still bound, per cent of control [32]: 100%; kinase still bound, per cent of control [33]: 0.25% and 2.9%; kinase still bound, per cent of control [35]: 100%; kinase still bound, per cent of control [36]: 100%
COc1cc(N2CCN(C)CC2)ccc1Nc1ncc2c(n1)N(C)c1ccccc1C(=O)N2C | 100 | 100 | 100 | 100 | 100 | 100 | 100 | 100 | 100 | 100 | 100 | 100 | 100 | 100 | 100 | 100 | 100 | 100 | 100 | 6.8 | kinase still bound, per cent of control [2]: 100%; kinase still bound, per cent of control [37]: 100%; kinase still bound, per cent of control [38]: 100%; kinase still bound, per cent of control [39]: 100%; kinase still bound, per cent of control [17]: 100%; kinase still bound, per cent of control [18]: 100%; kinase still bound, per cent of control [27]: 100%; kinase still bound, per cent of control [28]: 100%; kinase still bound, per cent of control [29]: 100%; kinase still bound, per cent of control [30]: 100%; kinase still bound, per cent of control [31]: 100%; kinase still bound, per cent of control [32]: 100%; kinase still bound, per cent of control [33]: 17% and 4.8%; kinase still bound, per cent of control [35]: 100%; kinase still bound, per cent of control [36]: 100%
C[C@@H](Oc1cc(-c2cnn(C3CCNCC3)c2)cnc1N)c1c(Cl)ccc(F)c1Cl | 21 | 100 | 100 | 43 | 100 | 7.8 | 10 | 0.25 | 0.45 | 81 | 8.2 | 100 | 82 | 73 | 27 | 96 | 49 | 100 | 100 | 0.1 | kinase still bound, per cent of control [37]: 94%; kinase still bound, per cent of control [5]: 1.6%; kinase still bound, per cent of control [38]: 100%; kinase still bound, per cent of control [39]: 43%; kinase still bound, per cent of control [40]: 100%; kinase still bound, per cent of control [25]: 30%; kinase still bound, per cent of control [27]: 5%; kinase still bound, per cent of control [28]: 11%; kinase still bound, per cent of control [29]: 4%; kinase still bound, per cent of control [30]: 8%; kinase still bound, per cent of control [31]: 100%; kinase still bound, per cent of control [33]: 1.2%; kinase still bound, per cent of control [34]: 79%; kinase still bound, per cent of control [35]: 40%; kinase still bound, per cent of control [36]: 100%
